{"source": "patent US20150125889A1", "about": "“IN VITRO DETECTION OF MICROORGANISMS WITH AZOREDUCTASE ACTIVITY” (BIOMÉRIEUX, priority 2012, published 2015)", "experiment_in_all_cases": "Reduction of azo substrates over 24 hours at 35° C., microtitration plate (Example 1)", "assay_type_in_all_cases": "cell-based", "key": {"[1]": {"test_system": "Escherichia coli", "design": "key to RED (substrate reduced or not): RED indicates whether the substrate is reduced (Y) or not (N); RED indicates whether the substrate is reduced (Y) or not (N); key to Co (growth, absorbance at 660 nm) / Decol (substrate decolourized, decrease in absorbance) / Fluo (fluorescence multiplied by 2 relative to substrate-free control): The symbol “+” means good growth/decolourization/significant increase in fluorescence; The symbol “+/−” means difficult growth; The symbol “−” means that there is no growth/decolourization/significant increase in fluorescence", "details": "E. coli, substrate 35 mg/l", "procedure,_shortened": "(§1)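 Each species is represented by a single strain inoculated at 0.5 McFarland into Trypcase soya broth with substrate at 35 mg/l. Plates are read continuously at 35° C. over 24 hours. A substrate counts as reduced when absorbance falls or fluorescence doubles relative to a substrate-free control.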"}, "[2]": {"test_system": "Geotrichum candidum", "design": "key to RED (substrate reduced or not): RED indicates whether the substrate is reduced (Y) or not (N); RED indicates whether the substrate is reduced (Y) or not (N); key to Co (growth, absorbance at 660 nm) / Decol (substrate decolourized, decrease in absorbance) / Fluo (fluorescence multiplied by 2 relative to substrate-free control): The symbol “+” means good growth/decolourization/significant increase in fluorescence; The symbol “+/−” means difficult growth; The symbol “−” means that there is no growth/decolourization/significant increase in fluorescence", "details": "G. candidum, substrate 35 mg/l", "procedure,_shortened": "as §1"}, "[3]": {"test_system": "Candida albicans", "design": "key to RED (substrate reduced or not): RED indicates whether the substrate is reduced (Y) or not (N); RED indicates whether the substrate is reduced (Y) or not (N); key to Co (growth, absorbance at 660 nm) / Decol (substrate decolourized, decrease in absorbance) / Fluo (fluorescence multiplied by 2 relative to substrate-free control): The symbol “+” means good growth/decolourization/significant increase in fluorescence; The symbol “+/−” means difficult growth; The symbol “−” means that there is no growth/decolourization/significant increase in fluorescence", "details": "substrate 35 mg/l", "procedure,_shortened": "as §1"}, "[4]": {"test_system": "Kocuria rosea", "design": "key to RED (substrate reduced or not): RED indicates whether the substrate is reduced (Y) or not (N); RED indicates whether the substrate is reduced (Y) or not (N); key to Co (growth, absorbance at 660 nm) / Decol (substrate decolourized, decrease in absorbance) / Fluo (fluorescence multiplied by 2 relative to substrate-free control): The symbol “+” means good growth/decolourization/significant increase in fluorescence; The symbol “+/−” means difficult growth; The symbol “−” means that there is no growth/decolourization/significant increase in fluorescence", "details": "K. rosea, substrate 35 mg/l", "procedure,_shortened": "as §1"}, "[5]": {"test_system": "Staphylococcus epidermidis", "design": "key to RED (substrate reduced or not): RED indicates whether the substrate is reduced (Y) or not (N); RED indicates whether the substrate is reduced (Y) or not (N); key to Co (growth, absorbance at 660 nm) / Decol (substrate decolourized, decrease in absorbance) / Fluo (fluorescence multiplied by 2 relative to substrate-free control): The symbol “+” means good growth/decolourization/significant increase in fluorescence; The symbol “+/−” means difficult growth; The symbol “−” means that there is no growth/decolourization/significant increase in fluorescence", "details": "S. epidermidis, substrate 35 mg/l", "procedure,_shortened": "as §1"}, "[6]": {"test_system": "Cronobacter muytjensii", "design": "key to RED (substrate reduced or not): RED indicates whether the substrate is reduced (Y) or not (N); RED indicates whether the substrate is reduced (Y) or not (N); key to Co (growth, absorbance at 660 nm) / Decol (substrate decolourized, decrease in absorbance) / Fluo (fluorescence multiplied by 2 relative to substrate-free control): The symbol “+” means good growth/decolourization/significant increase in fluorescence; The symbol “+/−” means difficult growth; The symbol “−” means that there is no growth/decolourization/significant increase in fluorescence", "details": "E. muytjensii, substrate 35 mg/l", "procedure,_shortened": "as §1"}, "[7]": {"test_system": "Staphylococcus aureus", "design": "key to RED (substrate reduced or not): RED indicates whether the substrate is reduced (Y) or not (N); RED indicates whether the substrate is reduced (Y) or not (N); key to Co (growth, absorbance at 660 nm) / Decol (substrate decolourized, decrease in absorbance) / Fluo (fluorescence multiplied by 2 relative to substrate-free control): The symbol “+” means good growth/decolourization/significant increase in fluorescence; The symbol “+/−” means difficult growth; The symbol “−” means that there is no growth/decolourization/significant increase in fluorescence", "details": "S. aureus, substrate 35 mg/l", "procedure,_shortened": "as §1"}, "[8]": {"test_system": "Pseudomonas aeruginosa", "design": "key to RED (substrate reduced or not): RED indicates whether the substrate is reduced (Y) or not (N); RED indicates whether the substrate is reduced (Y) or not (N); key to Co (growth, absorbance at 660 nm) / Decol (substrate decolourized, decrease in absorbance) / Fluo (fluorescence multiplied by 2 relative to substrate-free control): The symbol “+” means good growth/decolourization/significant increase in fluorescence; The symbol “+/−” means difficult growth; The symbol “−” means that there is no growth/decolourization/significant increase in fluorescence", "details": "P. aeruginosa, substrate 35 mg/l", "procedure,_shortened": "as §1"}, "[9]": {"test_system": "Acinetobacter baumanii", "design": "key to RED (substrate reduced or not): RED indicates whether the substrate is reduced (Y) or not (N); RED indicates whether the substrate is reduced (Y) or not (N); key to Decol (substrate decolourized, decrease in absorbance) / Fluo (fluorescence multiplied by 2 relative to substrate-free control) / Co (growth, absorbance at 660 nm): The symbol “+” means good growth/decolourization/significant increase in fluorescence; The symbol “+/−” means difficult growth; The symbol “−” means that there is no growth/decolourization/significant increase in fluorescence", "details": "A. baumannii, substrate 35 mg/l", "procedure,_shortened": "as §1"}, "[10]": {"test_system": "Enterococcus faecalis", "design": "key to RED (substrate reduced or not): RED indicates whether the substrate is reduced (Y) or not (N); RED indicates whether the substrate is reduced (Y) or not (N); key to Decol (substrate decolourized, decrease in absorbance) / Fluo (fluorescence multiplied by 2 relative to substrate-free control) / Co (growth, absorbance at 660 nm): The symbol “+” means good growth/decolourization/significant increase in fluorescence; The symbol “+/−” means difficult growth; The symbol “−” means that there is no growth/decolourization/significant increase in fluorescence", "details": "E. faecalis, substrate 35 mg/l", "procedure,_shortened": "as §1"}}, "data": [{"compound": "O=S(=O)([O-])c1ccc(N=Nc2c(O)ccc3cc(S(=O)(=O)[O-])ccc23)cc1.[Na+].[Na+]", "note": "[Sunset Yellow]", "values": [{"measurement": "Co (growth, absorbance at 660 nm)", "setting": "[1]", "value": "+"}, {"measurement": "Decol (substrate decolourized, decrease in absorbance)", "setting": "[1]", "value": "−"}, {"measurement": "Fluo (fluorescence multiplied by 2 relative to substrate-free control)", "setting": "[1]", "value": "−"}, {"measurement": "RED (substrate reduced or not)", "setting": "[1]", "value": "N"}, {"measurement": "Co (growth, absorbance at 660 nm)", "setting": "[2]", "value": "+"}, {"measurement": "Decol (substrate decolourized, decrease in absorbance)", "setting": "[2]", "value": "−"}, {"measurement": "Fluo (fluorescence multiplied by 2 relative to substrate-free control)", "setting": "[2]", "value": "−"}, {"measurement": "RED (substrate reduced or not)", "setting": "[2]", "value": "N"}, {"measurement": "Co (growth, absorbance at 660 nm)", "setting": "[3]", "value": "+"}, {"measurement": "Decol (substrate decolourized, decrease in absorbance)", "setting": "[3]", "value": "+"}, {"measurement": "Fluo (fluorescence multiplied by 2 relative to substrate-free control)", "setting": "[3]", "value": "+"}, {"measurement": "RED (substrate reduced or not)", "setting": "[3]", "value": "Y"}, {"measurement": "Co (growth, absorbance at 660 nm)", "setting": "[4]", "value": "−"}, {"measurement": "Decol (substrate decolourized, decrease in absorbance)", "setting": "[4]", "value": "−"}, {"measurement": "Fluo (fluorescence multiplied by 2 relative to substrate-free control)", "setting": "[4]", "value": "−"}, {"measurement": "Co (growth, absorbance at 660 nm)", "setting": "[5]", "value": "+"}, {"measurement": "Decol (substrate decolourized, decrease in absorbance)", "setting": "[5]", "value": "−"}, {"measurement": "Fluo (fluorescence multiplied by 2 relative to substrate-free control)", "setting": "[5]", "value": "−"}, {"measurement": "RED (substrate reduced or not)", "setting": "[5]", "value": "N"}, {"measurement": "Co (growth, absorbance at 660 nm)", "setting": "[6]", "value": "+"}, {"measurement": "Decol (substrate decolourized, decrease in absorbance)", "setting": "[6]", "value": "−"}, {"measurement": "Fluo (fluorescence multiplied by 2 relative to substrate-free control)", "setting": "[6]", "value": "−"}, {"measurement": "RED (substrate reduced or not)", "setting": "[6]", "value": "N"}, {"measurement": "Co (growth, absorbance at 660 nm)", "setting": "[7]", "value": "+"}, {"measurement": "Decol (substrate decolourized, decrease in absorbance)", "setting": "[7]", "value": "−"}, {"measurement": "Fluo (fluorescence multiplied by 2 relative to substrate-free control)", "setting": "[7]", "value": "−"}, {"measurement": "RED (substrate reduced or not)", "setting": "[7]", "value": "N"}, {"measurement": "Co (growth, absorbance at 660 nm)", "setting": "[8]", "value": "+"}, {"measurement": "Decol (substrate decolourized, decrease in absorbance)", "setting": "[8]", "value": "−"}, {"measurement": "Fluo (fluorescence multiplied by 2 relative to substrate-free control)", "setting": "[8]", "value": "−"}, {"measurement": "RED (substrate reduced or not)", "setting": "[8]", "value": "N"}, {"measurement": "Co (growth, absorbance at 660 nm)", "setting": "[9]", "value": "+"}, {"measurement": "Decol (substrate decolourized, decrease in absorbance)", "setting": "[9]", "value": "−"}, {"measurement": "Fluo (fluorescence multiplied by 2 relative to substrate-free control)", "setting": "[9]", "value": "−"}, {"measurement": "RED (substrate reduced or not)", "setting": "[9]", "value": "N"}, {"measurement": "Co (growth, absorbance at 660 nm)", "setting": "[10]", "value": "+"}, {"measurement": "Decol (substrate decolourized, decrease in absorbance)", "setting": "[10]", "value": "+"}, {"measurement": "Fluo (fluorescence multiplied by 2 relative to substrate-free control)", "setting": "[10]", "value": "+"}, {"measurement": "RED (substrate reduced or not)", "setting": "[10]", "value": "Y"}]}]}
